What was measured:
3T3-L1 adipocytes = test: In vitro lipolysis assay (FFA release), 3T3-L1 adipocytes; format: cell-based
Description: Differentiation of pre-adipocytes were based on previously published methods (Bunnell et al., 2008). Briefly, 3T3-L1 pre-adipocytes were grown to full confluence in DMEM, 10% FBS (GemCell, 100-500), 10 mM HEPES and antibiotic-antimycotic (full growth media). 2 days later, differentiation was induced by replacing the media with 1 μM dexamethasone, 1 μM rosiglitazone, 500 μM IBMX and 5 μg/ml insulin in full growth media 2 days later after reaching full confluence. Two days later media was replaced by differentiation induction media with 1 μM rosiglitazone and 5 μg/ml insulin for 4 days with media change after 2 days. Cells were kept in maintenance medium (full growth media with 5 μg/ml insulin) for 4 more days for full differentiation. For differentiation of mouse SVF derived adipocytes, the protocol was same except DMEM/F12 (10565018, ThermoFisher) was used as base media and initial differentiation induction media was kept for 3 days. For differentiation of human subcutaneous adipocytes, protocol and media from the manufacturer (C-12735, C-39437, Promocell) were used. Dexamethasone was omitted from the media in the last 3 days before performing experiments. Both mouse and human SVF derived adipocytes were differentiated in collagen coated plates (A1142802, ThermoFisher).
For in vitro lipolysis assay, cells were washed with PBS and media were changed to full growth media 1 day before experiment. Cells were serum starved for 2 h and placed in KRBH buffer (30 mM HEPES, 120 mM NaCl, 4 mM KH2PO4, 1 mM MgSO4, 0.75 mM CaCl2), and 10 mM NaHCO3) with 2% fatty acid free BSA and 5 mM glucose. FGF1 was added 10 min before induction of lipolysis with 100 nM isoprotenol (ISO). Inhibitors were added 30 min prior to FGF1 treatment unless otherwise noted. Media were collected and cells were lysed in protein extraction buffer. FFAs were measured in the media using a commercial kit (Wako-NEFAHR2) and normalized to protein concentration. For ex vivo lipolysis, the assay was modified from a published protocol (Funicello et al., 2007). Briefly, approximately 0.1 gram of adipose tissue was excised, weighed and kept in cold PBS until treatment and control tissues were collected. Tissues were cut into small pieces and incubated in same KRBH buffer as described above for 4 h. FFAs were measured and normalized by the explant weights.

[1] = system: hepatic gluconeogenic intermediates; test: Hepatic metabolite levels (targeted metabolomics, kits); format: in vivo, mouse
Description: Polar metabolites were extracted and analyzed using a previously reported method (Yuan et al., 2012). Briefly, ob/ob mice were sacrificed by cervical dislocation. Liver pieces (50-100 mg) were snap frozen in liquid nitrogen. 1 ml LC-MS grade 80% methanol chilled at −80° C. was added per 100 mg tissue on dry ice. Samples were homogenized by TissueLyzer and lysates were incubated on dry ice for 30 minutes and centrifuged at 20000 g for 10 minutes. Clarified supernatants were transferred to new tubes. Pellets were extracted again and supernatants were combined. After drying the supernatant under nitrogen gas, extracts were dissolved in H2O (40 μL) and 10 μL were subjected to liquid chromatography mass spectrometry (LC-MS). Polar metabolites were measured by LC-MS using a TSQ Quantiva instrument fitted with a Luna NH2 HPLC column (5.0 μm; 4.6 mm×50 mm, Phenomenex). The following LC solvents were used: buffer A, 95:5 H2O/ACN, 20 mM ammonium hydroxide, 20 mM ammonium acetate; buffer B, 100% ACN. A typical LC run was 23 minutes long with a flow rate of 0.4 ml min-1 and consisted of the following steps: 85 to 30% buffer B over 3 minutes, 30 to 2% buffer B over 9 minutes, 2% buffer B for 3 minutes, 2 to 85% buffer B over 1 minute, and 85% buffer B for 7 minutes. MS analyses were performed using electrospray ionization (ESI) in negative or positive ion mode depending on the metabolites being analyzed. Negative mode and positive mode source parameters were the following: spray voltage 3.5 kV, ion transfer tube temperature of 325° C., and a vaporizer temperature of 275° C.
Liver samples were prepared from HFD-fed mice as described in Pcx activity assay. After determining Pcx activity from sample homogenates, the remaining supernatant was de-proteinated by perchloric acid (PCA)-KOH method using a commercial kit. De-proteinated samples were used to quantify hepatic metabolites using the commercial kits. Hepatic metabolites concentration was normalized to protein concentration and corrected for the loss of volume due to de-proteinization.

hepatic β-oxidation = test: β-oxidation assay of hepatic mitochondria; format: in vivo, mouse; conditions: ob/ob mice 14 h after FGF1 injection
Description: FIGS. 8A-8E: FGF1 decreases hepatic glucose production via controlling metabolic flux to gluconeogenesis. (FIG. 8A) Pyruvate tolerance test (PTT) (left panel) and glycerol tolerance test (Glycerol TT) of overnight-fasted DIO mice 2 h after vehicle (n=6) or FGF1 (n=7) injection (0.5 mg/kg). Data are represented as mean±SEM (*p<0.05, **p<0.01, ***p<0.001). (FIG. 8B) Schematic diagram showing the steps in hepatic glucose production. […] (FIG. 8C) Relative levels of the key metabolites involved in the citric acid cycle as measured by targeted metabolomic profiling. Data are represented as mean±SEM (vehicle n=5; FGF1 n=6). (FIG. 8D) Pyruvate carboxylase, PEPCK and G6Pase levels in livers of overnight fasted ob/ob mice 2 hours after injection of vehicle or FGF1, as measured by Western blot. Protein levels are normalized to actin for quantification (n=6/arm). (FIG. 8E) β-oxidation assay of hepatic mitochondria from ob/ob mice 14 h after Vehicle (PBS) or FGF1 injection. Mitochondria were incubated with BSA-conjugated ^14C palmitate, and released ^14C CO2 was measured by scintillation counting. Data are represented as mean±SEM (n=5/arm).

[2] = livers of ob/ob mice 2 h after FGF1 injection

Substance: FGF1: Recombinant fibroblast growth factor 1 protein, dissolved in PBS, injected subcutaneously
- FGF1 suppression of lipolysis under FGFR1 inhibition (3T3-L1 adipocytes; FGF1 100 ng/ml with FGFR1 inhibitor PD 173074 1 μM): blocked by FGFR1 inhibition
- FGF1-induced suppression of lipolysis under PDE3B inhibition (3T3-L1 adipocytes; FGF1 100 ng/ml with PDE3 inhibitors (cilostamide or quazinone 10 μM)): did not impair
- anti-lipolytic activity of FGF1 with selective inhibitors of PDE4 (3T3-L1 adipocytes; FGF1 100 ng/ml with roflumilast 2 μM or cilomulast 10 μM): blocked by selective inhibitors of PDE4
- isoproterenol-induced lipolysis (3T3-L1 adipocytes; dose response of FGF1, ISO 100 nM, 4 h): dose-dependently suppressed isoproterenol-induced lipolysis
- hepatic gluconeogenic substrates ([1]; HFD-fed adR1KO mice, 6 h after FGF1 0.5 mg/kg): insensitive to FGF1 treatment
- reductions in hepatic gluconeogenic substrates ([1]; HFD-fed adR1WT mice, 6 h after FGF1 0.5 mg/kg): largely recapitulated
- hepatic TCA cycle metabolites [1, 2]: not affected
- hepatic acetyl-CoA levels [1, 2]: decreased
- hepatic intermediates downstream of pyruvate (G6P, F6P, PG, PEP, OAA) [1, 2]: reduced
- hepatic β-oxidation (hepatic β-oxidation): absence of any change

From patent US20250082781A1, “METHODS OF LOWERING BLOOD GLUCOSE AND TREATING TYPE 2 DIABETES BY ACTIVATION OF PDE4D3” (Salk Institute for Biological Studies, priority 2021, published 2025)
